Where a SMILES comes first, the peptide text is derived from it.
Assays:
[1] = Pharmacokinetics in human healthy subjects; format: in vivo; conditions: single IV 10 mg/kg
Method: As in animals; PK study of NX210 in Human Healthy subjects was conducted following the measurement of its cyclic form NX218.

[2] = system: hippocampal CA1 pyramidal neurons; assay: Histological study, cresyl violet CA1 pyramidal neuron counting, D15; format: in vivo, mice
From the text: In order to measure neuronal loss in this model (as described by Maurice et al., 2013), a well-known pathological event occurring in patients with AD/Tauopathies, hippocampal neurons were counted in the brain of Sham, Aβ25-35 / vehicle and Aβ25-35 / NX210-treated mice.
To do so, fourteen days after ICV injection of Aβ25-35 or Scrambled peptide (D15) and daily compound administrations of NX210 (IP) or vehicle (IP), mice were anaesthetized by ketamine/xylazine and then transcardially perfused with phosphate buffer solution (PBS, 15 ml at 5 ml/min, pH 7.4) until fluid running clear, followed by a solution of 4% paraformaldehyde (PFA, 25 ml at 5 ml/min) until the fixation tremors disappeared. Brains were removed carefully and kept in 4% PFA at 4° C. for 24-48 h. Brains were then dehydrated through a series of graded ethanol baths to displace the water, and then infiltrated with wax. Finally, the infiltrated brains were embedded into wax blocks and sectioned at […]. Cresyl violet (CV) staining was performed on 9 brain sections per animal, each coronal section separated by 100 µm for CA1 pyramidal neuron counting.

[3] = system: Aβ25-35-induced short-term memory deficits; assay: Late-stage efficacy: Y-maze with treatment started at D11; format: in vivo, mice
Method: Seven days after ICV injection of Aβ25-35 peptide (D08), all animals were tested for spontaneous alternation performance in the Y-maze, an index of spatial working memory (short-term memory test). Each mouse was placed at the end of one arm and allowed to move freely through the maze during an 8 min session. An alternation is defined as entries into all three arms on consecutive occasions. The number of maximum alternations is therefore the total number of arm entries minus two and the percentage of alternation is calculated as (actual alternations / maximum alternations) x 100. This parameter includes the percentage of alternation (memory index) (Maurice et al., 1996, 1998; Meunier et al., 2006).
The efficacy of NX210 and NX218 SCO-Spondin derived peptides was therefore assessed during this late-stage physiopathology setting. Specifically, the administrations of NX210, NX218 or vehicle were started at D11 and were repeated once a day until the end of the experiment.
All animals were tested for spontaneous alternation performance in the Y-maze, an index of short-term memory (see Example 3 for method details) from D08 (i.e. pre-treatment values) and then once a week for three weeks (D15, D22, D29).

[4] = measured as NX218, maximum, N=3
[5] = measured as NX218, minimum, N=3
[6] = D08, pre-treatment value, IP 2 mg/kg once a day started at D11
[7] = D15, IP 2 mg/kg once a day started at D11
[8] = D22, IP 2 mg/kg once a day started at D11
[9] = D29, IP 2 mg/kg once a day started at D11

SMILES: N=C(N)NCCC[C@H](NC(=O)[C@H](CO)NC(=O)[C@H](CS)NC(=O)[C@H](CO)NC(=O)[C@H](CO)NC(=O)[C@H](Cc1c[nH]c2ccccc12)NC(=O)CNC(=O)[C@H](CO)NC(=O)[C@@H](N)Cc1c[nH]c2ccccc12)C(=O)N[C@@H](CO)C(=O)N[C@@H](CS)C(=O)NCC(=O)O [NX210, W-S-G-W-S-S-C-S-R-S-C-G] (H-WSGWSSCSRSCG-OH; N-terminus and C-terminus assumed)
- Kel (clearance rate constant), AM ([1]; measured as NX218, arithmetic mean, N=3): 0.0348 I/min
- Kel (clearance rate constant), GM ([1]; measured as NX218, geometric mean, N=3): 0.0347 I/min
- AUClast, Max ([1]; measured as NX218, maximum): 7850 ng·min/mL
- Cmax, Max ([1]; measured as NX218, maximum): 1040 ng/mL
- Tmax, Max ([1]; measured as NX218, maximum): 12.00 min
- AUC∞, Max [1, 4]: 7920 ng·min/mL
- Kel (clearance rate constant), Max [1, 4]: 0.0372 I/min
- t½, Max [1, 4]: 22.5 min
- Kel (clearance rate constant), Median ([1]; measured as NX218, median, N=3): 0.0365 I/min
- AUClast, Min ([1]; measured as NX218, minimum): 1470 ng·min/mL
- Cmax, Min ([1]; measured as NX218, minimum): 185 ng/mL
- Tmax ([1]; measured as NX218, minimum): 6.00 min
- AUC∞, Min [1, 5]: 2800 ng·min/mL
- Kel (clearance rate constant), Min [1, 5]: 0.0308 I/min
- t½ [1, 5]: 18.6 min
- effect on neuronal loss in the hippocampus, in words ([2]; 2 mg/kg): significantly prevents
- Histology %, percentage of control (Sc.Aβ / Vhc) ([2]; IP 2 mg/kg once a day, D15): 93%
- Histology Mean ([2]; IP 2 mg/kg once a day, D15): 311.84 number of neurons per mm of tissue
- Y-maze (D08) % (Sc.Aβ / D11 vhc = 100) [3, 6]: 55%
- Y-maze (D08) Mean, percentage of alternation [3, 6]: 39.17%
- effect on short-term working memory deficits at D15, in words ([3]; D15, five daily administrations, 2 mg/kg started at D11): tendency to rescue
- Y-maze (D15) % (Sc.Aβ / D11 vhc = 100) [3, 7]: 71%
- Y-maze (D15) Mean, percentage of alternation [3, 7]: 55.55%
- effect on working memory deficits at D22, in words ([3]; D22, 12 day-treatment, 2 mg/kg started at D11): significantly rescued
- Y-maze (D22) % (Sc.Aβ / D11 vhc = 100) [3, 8]: 82%
- Y-maze (D22) Mean, percentage of alternation [3, 8]: 60.08%
- effect on memory deficits at D29, in words ([3]; D29, 19 day-treatment, 2 mg/kg started at D11): fully restored
- Y-maze (D29) % (compared to Sham group) [3, 9]: 97%
- Y-maze (D29) Mean, percentage of alternation [3, 9]: 74.73%

Reference: US20230212225A1, “PEPTIDE COMPOSTIONS AND METHODS FOR TREATING TAUOPATHIES” (AXOLTIS PHARMA, priority 2019, published 2023)
